Reference: publication PMC7232676, “Fragment-Based Design of Mycobacterium tuberculosis InhA Inhibitors” (Journal of Medicinal Chemistry, 2020)
Like-named read-outs stand apart in the source and are kept apart here.

How the values were obtained:
InhA [1] = biological target: T1, InhA (Mycobacterium tuberculosis, UniProt P9WGR1); assay: Differential scanning fluorimetry (fluorescence-based thermal-shift assay); format: binding; conditions: for ΔTm (thermal shift of InhA): fragments 5 mM, InhA 10 μM, NAD+ 1 mM
Experimental: Differential scanning fluorimetry (DSF) was used to screen an in-house library of 800 rule-of-three-compliant fragments. A saturating concentration of the cofactor in oxidized form (1 mM NAD^+) was used in all the experiments to ensure that the cofactor binding site would be occupied by NAD^+ and that fragments would not bind there. […] Upon screening of the fragment library, a hit was defined where the melting point was increased by at least +3 °C at a concentration of 5 mM (Figure 1a).
The substrate binding regions of InhA are divided into three sites: site I, site II, and site III.
Differential scanning fluorimetry was used to screen a library of 800 fragments. The assay was performed in a 96 well plate format using a CFX Connect (Bio-Rad). Each well contained a solution of 10 μM InhA, 1 mM NAD^+, HEPES (50 mM), NaCl (150 mM), pH 7.5, 5× Sypro Orange, 5% DMSO, and fragments at 5 mM. […] Controls were made in quadruplicates for all the experiments.

InhA [2] = biological target: T1, InhA; assay: InhA enzymatic assay (NADH oxidation at 340 nm, 2-trans-octanoyl-CoA substrate); format: biochemical; conditions: for LE (ligand efficiency): LE = (1.37 × pIC50)/HA; for IC50: average of three experiments
Experimental: The identified fragment hits were further evaluated by an InhA enzymatic assay using 2-trans-octanoyl-CoA as a substrate.[22]
The carboxylic acid in fragment 1 (P1) was replaced by an isosteric sulfonamide as a linker to synthesize compound 6 (Figure 2b). Docking experiments with Glide XP[23] […] All the synthesized compounds were tested at a concentration of 100 μM using the InhA enzymatic assay.
InhA activity was followed by a colorimetric assay that measured the oxidation of NADH at 340 nm in the presence of 2-trans-octanoyl-CoA as described before in a buffer that contained 30 mM PIPES, pH 7.5, 50 mM NaCl, 0.1 mM EDTA, and 100 nM InhA.[26] This was preincubated for 10 min at room temperature with 0.25 mM NADH and varying concentrations of the compounds with 1% (v/v) DMSO in a 150 μL reaction volume. The reaction was started by the addition of 2-trans-octanoyl-CoA at a final concentration of 1.5 mM, prepared as described previously.[22] Reactions were followed for 20 min using a plate reader (CLARIOstar, BMG LABTECH).

M. tuberculosis H37Ra = assay: Growth inhibition of M. tuberculosis H37Ra, 48 h cultivation; format: cell-based, Mycobacterium tuberculosis; conditions: for inhibition at 200 µM: 200 μM compound in the media, 48 h cultivation
Experimental: (§1) Further analysis of the effect on the synthesis of mycolic acids by metabolic labeling[24],[25] of the model strain M. tuberculosis H37Ra with ^14C acetate was also explored. A 48 h cultivation in the presence of 200 μM of the compounds in the media led to 84% growth inhibition for compound 19; 40% and 33% growth inhibition for compounds 14 and 23, respectively; 38% growth inhibition for compound 24 and isoniazid; 23% growth inhibition for compounds 25 and 26.
(§2) The culture of M. tuberculosis H37Ra was grown statically at 37 °C in Middlebrook 7H9 broth (Difco) supplemented with albumin–dextrose–catalase and 0.05% Tween 80. When the culture reached the OD600nm value of 0.290, it was divided into 10 mL aliquots and tested compounds dissolved in DMSO were added at 200 μM final concentrations, while isoniazid that served as a control inhibitor was at 40 μM. The final concentration of DMSO in each culture was at 1%. After 24 h of cultivation with shaking (120 rpm) in the presence of tested inhibitors, ^14C acetate (specific activity of 106 mCi/mmol) was added at a final concentration of 0.5 μCi/mL and the cells were cultivated for the next 24 h.

[3] = system: synthesis of mycolic acids in M. tuberculosis H37Ra; assay: Metabolic labeling with 14C acetate, TLC of FAME/MAME (mycolic acid synthesis); format: cell-based, Mycobacterium tuberculosis; conditions: 14C acetate labeling
Experimental: as §1
(§3) Figure 5 (A) TLC of the metabolic labeling experiments of M. tuberculosis H37Ra with ^14C acetate treated with the compounds 14, 19, and 23–26 for the analysis of mycolic acid inhibition. Fatty acid methyl esters, FAME; mycolic acid methyl esters, MAME; isoniazid, INH. (B) TLC of the metabolic labeling experiments of M. tuberculosis H37Ra with ^14C acetate treated with the compounds 14, 19, and 23–26 for the analysis of the lipid inhibition. Trehalose monomycolates, TMM; trehalose dimycolates, TDM; phosphatidylethanolamine, PE; cardiolipin, CL; isoniazid, INH.
The culture of M. tuberculosis H37Ra was grown statically at 37 °C in Middlebrook 7H9 broth (Difco) supplemented with albumin–dextrose–catalase and 0.05% Tween 80. […]
Fatty acid methyl esters (FAMEs) and mycolic acids methyl esters (MAMEs) were prepared from whole cells harvested from 4 mL culture aliquots as previously described.[32] […] 3× and detected by autoradiography.

[4] = system: trehalose monomycolates and dimycolates in M. tuberculosis H37Ra; assay: Metabolic labeling with 14C acetate, TLC of lipid profiles (TMM, TDM); format: cell-based, Mycobacterium tuberculosis; conditions: 200 μM compound, 14C acetate labeling
Text: as §3
as §2, with “After 24 h of cultivation with shaking (120 rpm) in the presence of tested inhibitors, ^14C acetate (specific activity of 106 mCi/mmol) was added at a final concentration of 0.5 μCi/mL and the cells were cultivated for the next 24 h.” left out
Lipids were extracted from whole cells as described earlier with minor modifications.[24] […] Five μL of each lipid sample was loaded on the thin-layer chromatography (TLC) silica gel plates (F254, Merck); lipids were separated in chloroform/methanol/water [20:4:0.5] and detected by autoradiography.

[5] = 100 μM compound, read-out: Inh % (inhibition percentage of InhA)
[6] = supplementary CSV, read-out: % inhibition
[7] = Mycobacterium tuberculosis, H37RA

T1 sequence (P9WGR1 whole entry, looked up, the tested form may be a part): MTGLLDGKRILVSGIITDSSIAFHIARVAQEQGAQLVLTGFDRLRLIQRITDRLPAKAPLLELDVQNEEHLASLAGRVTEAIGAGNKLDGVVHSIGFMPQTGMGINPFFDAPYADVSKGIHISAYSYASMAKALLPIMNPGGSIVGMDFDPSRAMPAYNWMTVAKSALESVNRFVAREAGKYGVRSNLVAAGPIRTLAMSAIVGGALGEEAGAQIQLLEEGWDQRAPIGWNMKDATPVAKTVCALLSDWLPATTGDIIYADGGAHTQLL

Compound | DTm (InhA [1]) [oC] | ΔTm (thermal shift of InhA) (InhA [1]) | inhibition at 100 µM (InhA [2]; [5]) [%] | IC50 (InhA [2]) [µM] | inhibition at 100 µM (InhA [2]; [6]) [%] | inhibition at 200 µM (M. tuberculosis H37Ra; [7]) [%] | also measured
O=C(O)/C=C/c1cccc(C(F)(F)F)c1 [compound 1, (E)-3-(3-(trifluoromethyl)phenyl)acrylic acid] | 3.2 | – | – | – | – | – | Inhibition of InhA (InhA [2]; 2 mM fragment, triplicate): 0%
O=C(O)c1ccccc1C(=O)c1ccc(Cl)c([N+](=O)[O-])c1 [compound 2, 2-(4-chloro-3-nitrobenzoyl)benzoic acid] | 4.2 | +4.2 °C | – | – | – | – | –
O=C(O)c1cc2ccccc2cc1O [compound 3, 3-hydroxy-2-naphthoic acid] | 4.2 | +4.2 °C | – | – | – | – | –
O=C(O)CCc1cccc(Cl)c1 [compound 4, 3-(3-chlorophenyl)propanoic acid] | 3 | +3.0 °C | – | – | – | – | –
O=C(O)c1ccccc1-n1cccn1 [compound 5, 2-(1H-pyrazol-1-yl)benzoic acid] | 6 | +6.0 °C | – | – | – | – | –
NCc1ccc(NS(=O)(=O)/C=C/c2cccc(C(F)(F)F)c2)cc1 [compound 14, (E)-N-(4-(Aminomethyl)phenyl)-2-(3-(trifluoromethyl)phenyl)ethene-1-sulfonamide] | – | – | > 90 | 9 | > 90 | 40 | LE (ligand efficiency) (InhA [2]): 0.29; fold increase of the potency from compound 6 (InhA [2]; compared to compound 6): 10 fold
NCc1cccc(NS(=O)(=O)/C=C/c2cccc(C(F)(F)F)c2)c1 [compound 19, (E)-N-(3-(Aminomethyl)phenyl)-2-(3-(trifluoromethyl)phenyl)ethene-1-sulfonamide] | – | – | > 90 | 4 | > 90 | 84 | LE (ligand efficiency) (InhA [2]): 0.31; effect on synthesis of mycolic acids ([3]; 200 μM compound): slight inhibition; amount of trehalose dimycolates (TDM) [4]: decrease; amount of trehalose monomycolates (TMM) [4]: accumulation
Cc1c(S(=O)(=O)Nc2cccc(CN)c2)sc2ccc(Cl)cc12 [compound 23, N-(3-(Aminomethyl)phenyl)-5-chloro-3-methylbenzo[b]thiophene-2-sulfonamide] | – | – | > 90 | – | > 90 | 33 | activity against M. tuberculosis (M. tuberculosis H37Ra): inactive
Cc1c(S(=O)(=O)Nc2cccc(CN)c2)sc2ccc(F)cc12 [compound 24, N-(3-(Aminomethyl)phenyl)-5-fluoro-3-methylbenzo[b]thiophene-2-sulfonamide] | – | – | > 90 | 0.25 | > 90 | 38 | LE (ligand efficiency) (InhA [2]): 0.40
NCc1cccc(NS(=O)(=O)c2cc3ccccc3s2)c1 [compound 25, N-(3-(Aminomethyl)phenyl)benzo[b]thiophene-2-sulfonamide] | – | – | > 90 | 6 | > 90 | 23 | –
NCc1cccc(NS(=O)(=O)c2cc3ccccc3o2)c1 [compound 26, N-(3-(Aminomethyl)phenyl)benzofuran-2-sulfonamide] | – | – | – | – | 66 | 23 | inhibition at 100 µM (InhA [2]; read-out: Inh % (inhibition percentage of InhA)): 66%
NNC(=O)c1ccncc1 [isoniazid, reference compound] | – | – | – | – | – | – | inhibition at 40 µM (M. tuberculosis H37Ra; Mycobacterium tuberculosis, H37RA, 48 h, read-out: growth inhibition): 38%; effect on synthesis of mycolic acids ([3]; isoniazid control at 40 μM): complete abolition
